Source: patent publication US12636266B2 (Rivo Bio, Inc., priority 2024, dated 2026)

What was measured:
[1] = Z to E isomer conversion by NMR; assay type: physicochemical; conditions: shortly following synthesis
Experimental: Compound 5, described here with structure shown in Scheme 1, is the stable E isomer. However, the initial reaction in Scheme 1 with compound 5-1 produces both the E and Z isomers of 5-2b. Column chromatography was used to separate the isomers and each isomer was then carried through the next three reactions separately, to produce both compound 5 and its Z isomer.

[2] = biological target: T1, human recombinant 5-HT2A receptor (Homo sapiens, UniProt P28223); test: IPOne HTRF agonist assay, percent activity at 5-HT2A; assay type: cell-based; conditions: relative to 5-HT
T1 construct: host or cells: CHO-K1
T1 sequence (P28223 whole entry): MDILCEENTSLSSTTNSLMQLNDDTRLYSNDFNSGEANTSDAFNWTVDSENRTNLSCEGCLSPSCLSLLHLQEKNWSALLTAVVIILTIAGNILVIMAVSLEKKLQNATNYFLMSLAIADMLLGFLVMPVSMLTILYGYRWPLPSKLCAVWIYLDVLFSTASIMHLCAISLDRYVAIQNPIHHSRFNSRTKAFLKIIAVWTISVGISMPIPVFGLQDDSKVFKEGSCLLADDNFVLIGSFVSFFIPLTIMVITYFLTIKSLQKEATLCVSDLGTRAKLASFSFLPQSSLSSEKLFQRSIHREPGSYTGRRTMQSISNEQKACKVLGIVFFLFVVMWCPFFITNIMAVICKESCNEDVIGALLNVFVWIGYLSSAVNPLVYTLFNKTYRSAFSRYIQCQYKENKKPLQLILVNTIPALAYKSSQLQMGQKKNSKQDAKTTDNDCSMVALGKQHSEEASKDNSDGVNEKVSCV

[3] = biological target: T1, human recombinant 5-HT2A receptor; test: as above; assay type: cell-based; conditions: relative to a-Me-5-HT, CHO-K1 cells; for activation at 0.3 µM / activation at 30 µM: 1 h, read-out: Percent (a-Me-5-HT) Activity at 5-HT2A (30 uM/0.3 μM)
Experimental: Example 16: Percent (α-Me-5-HT) Activity at 5-HT2A Assay
Compounds were tested in the IPOne HTRF (Homogeneous Time Resolved Fluorescence) assay at Epics Therapeutics S.A. (Belgium). Briefly, CHO-K1 cells expressing human recombinant 5-HT2A receptor grown to mid-log phase in culture media without antibiotics were detached with PBS-EDTA, centrifuged and resuspended in medium without antibiotics buffer. 20,000 cells were distributed in a 96 well plate and incubated overnight at 37° C. with 5% CO2. For agonist testing (384-well, suspension), 5 μl of cells were dispensed on 5 μl of test compound or reference agonist in each well and the plate was incubated for 60 min. at 37° C. with 5% CO2. IP1-D2 reagent and anti-IP1 cryptate reagents were then dispensed in the wells and IP1 concentrations were then measured following the manufacturer recommendations.

SMILES	Percent (a-Me-5-HT) Activity at 5-HT2A (30 uM/0.3 μM) ([3]; 0.3 μM (second value))	Percent (a-Me-5-HT) Activity at 5-HT2A (30 uM/0.3 μM) ([3]; 30 uM (first value))	further results
COc1ccc2c(c1)/C(=C\C=O)CC2 (single isomer, unassigned) [Z isomer of compound 5-4]			Z isomer converting to the E isomer (by NMR) [1]: 40%
COc1ccc2c(c1)/C(=C/CN(C)C)CC2 [Compound 5, N,N-Dimethyl[(E)-2-(6-methoxy-1-indanylidene)ethyl]amine]	74%	96%	Percent (5-HT) Activity at 5-HT2A (30 μM) [2]: 92%
COc1ccc2c(c1)/C(=C(\F)CN(C)C)CC2 [Compound 10, N,N-Dimethyl[(Z)-2-(6-methoxy-1-indanylidene)-2-fluoroethyl]amine]	4%	1%	
COc1ccc2c(c1)/C(=C/CN1CCC1)CC2 [Compound 12, 1-[(E)-2-(6-Methoxy-1-indanylidene)ethyl]azetidine]	27%	47%	
CN(C)C/C=C1\CCc2ccc3c(c21)CCO3 [Compound 14, N,N-Dimethyl[(E)-2-(3-oxa-1,2,6,7-tetrahydro-as-indacen-8-ylidene)ethyl]amine]	6%	33%	
CN(C)C/C=C1\C=Cc2ccccc21 [Compound 22, N,N-Dimethyl[(E)-2-(1-indenylidene)ethyl]amine]	5%	49%	
COc1ccc2c(c1)/C(=C(/F)CN(C)C)CC2 [Compound 23, N,N-Dimethyl[(E)-2-(6-methoxy-1-indanylidene)-2-fluoroethyl]amine]			activation at 0.3 µM ([3]; 0.3 μM (second value)): -1%; activation at 30 µM ([3]; 30 uM (first value)): -2%
C(/CN1CCC1)=C1/CCc2ccc3c(c21)CCO3 [Compound 24, 1-[(E)-2-(3-Oxa-1,2,6,7-tetrahydro-as-indacen-8-ylidene)ethyl]azetidine]	17%	38%	
COc1ccc2c(c1)CC/C2=C\CN1CCC1 [Compound 25, 1-[(E)-2-(5-Methoxy-1-indanylidene)ethyl]azetidine]			activation at 0.3 µM ([3]; 0.3 μM (second value)): 0%; activation at 30 µM ([3]; 30 uM (first value)): -3%
COc1ccc2c(c1)CC/C2=C\CN(C)C [Compound 26, N,N-Dimethyl[(E)-2-(5-methoxy-1-indanylidene)ethyl]amine]			activation at 0.3 µM ([3]; 0.3 μM (second value)): 10%; activation at 30 µM ([3]; 30 uM (first value)): -1%
FC(F)(F)Oc1ccc2c(c1)/C(=C/CN1CCC1)CC2 [Compound 27, 1-[(E)-2-(6-Trifluoromethoxy-1-indanylidene)ethyl]azetidine]	5%	8%	
C(/CN1CCC1)=C1/CCc2cccnc21 [Compound 28, 1-[(E)-2-(4-Aza-3-indanylidene)ethyl]azetidine]	5/5%	5/5%	
COC1C/C(=C\CN)c2ccccc21 (stereo not shown) [Compound 29]	6%	53%	
COC1C/C(=C\CN2CCC2)c2ccccc21 (stereo not shown) [Compound 30, 1-[(E)-2-(3-Methoxy-1-indanylidene)ethyl]azetidine]	3%	24%	
CN(C)C/C=C1\CCc2sccc21 [Compound 31, N,N-Dimethyl[(E)-2-{2-thiabicyclo[3.3.0]octa-1(5),3-dien-6-ylidene}ethyl]amine]	3%	2%	
CCC(N)/C=C1\CCc2ccccc21 (stereo not shown) [Compound 101, 1-[(E)-(1-Indanylidene)methyl]propylamine]	15%	20%	
OCc1ccc2c(c1)/C(=C/CN1CCC1)CC2 [Compound 103, {(E)-3-[2-(1-Azetidinyl)ethylidene]-5-indanyl}methanol]	9%	94%	
